Experimental data taken from ChEMBL document CHEMBL1201862, “PubChem BioAssay data set” (2004).
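Exposure lasted 48 hours, with cells grown in 96-well plates and compounds tested at five concentrations. Abbreviation: GI50, concentration required for 50% inhibition of growth.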 Activity calls are given as the source filed them. No stated cut-off is given here; in the data, active = GI50 up to about 1.1 µM and inactive = higher. Starred links: 1 amine or outer side, 2 acyl side, 3 side chain; linkers in the order of their positions; H or OH if unused. Positions of bridges follow the written chain, without caps; N, C: chain ends. Non-standard residues stand in square brackets, D forms with d. Residues, ends and D or L forms follow the SMILES beside them. Peptide text beside a SMILES is read from it. * marks the point of attachment. *: point of attachment. X40 = CC[C@H](C)[C@@H](N[*:1])[C@@H](O)CC(=O)[*:2]; NMeY = CN[C@@H](Cc1ccc(O)cc1)C(=O)O; dNMeL = CN[C@H](CC(C)C)C(=O)O; Hiv = CC(C)[C@H](O)C(=O)O; Pyruvoyl = CC(=O)C(=O)*; Boc = CC(C)(C)OC(=O)*

Assays:
Assay in all cases: inhibition of tumour cell growth, NCI panel, 48 h
SK-MEL-2 = system: SK-MEL-2
OVCAR-4 = system: OVCAR-4
RPMI-8226 = system: RPMI-8226
TK-10 = system: TK-10
CAKI-1 = system: CAKI-1
EKVX = system: EKVX
K562 = system: K562
MOLT-4 = system: MOLT-4
OVCAR-3 = system: OVCAR-3
UACC-257 = system: UACC-257
NCI-H460 = system: NCI-H460
DLD-1 = system: DLD-1
DU-145 = system: DU-145
UACC-62 = system: UACC-62
HCT-116 = system: HCT-116
HL-60 = system: HL-60
RXF 393 = system: RXF 393
SF-539 = system: SF-539
PC-3 = system: PC-3
MCF7 = system: MCF7

SMILES	GI50 (SK-MEL-2)	GI50 (OVCAR-4)	GI50 (RPMI-8226)	GI50 (TK-10)	GI50 (CAKI-1)	GI50 (EKVX)	GI50 (K562)	GI50 (MOLT-4)	GI50 (OVCAR-3)	GI50 (UACC-257)	GI50 (NCI-H460)	GI50 (DLD-1)	GI50 (DU-145)	GI50 (UACC-62)	GI50 (HCT-116)	GI50 (HL-60)	GI50 (RXF 393)	GI50 (SF-539)	GI50 (PC-3)	GI50 (MCF7)
COc1ccc(C[C@@H]2Cc3cc(OC)c(OC)cc3CN2C)cc1	> 100 µM (inactive)	76.4 µM (inactive)	> 100 µM (inactive)	> 100 µM (inactive)	59.7 µM (inactive)	> 100 µM (inactive)	> 100 µM (inactive)	> 100 µM (inactive)	> 100 µM (inactive)	> 100 µM (inactive)	> 100 µM (inactive)	> 100 µM (inactive)	–	–	–	–	–	–	–	–
CN(C)c1ccc2c(c1)oc(=O)c1ccccc12	6.24 µM (inactive)	12.3 µM (inactive)	3.59 µM (inactive)	19.7 µM (inactive)	11.4 µM (inactive)	16.7 µM (inactive)	4.52 µM (inactive)	16.9 µM (inactive)	4.61 µM (inactive)	14.4 µM (inactive)	10.4 µM (inactive)	–	10.7 µM (inactive)	13.6 µM (inactive)	12.3 µM (inactive)	3.69 µM (inactive)	5.4 µM (inactive)	14 µM (inactive)	15.7 µM (inactive)	5.08 µM (inactive)
C=C[C@@]1(C)CC2(C=C(CO)C(O)O2)Oc2c1c(=O)oc1cccc(C)c21 (stereo partly specified)	4.1 µM (inactive)	3.78 µM (inactive)	0.822 µM (active)	17.6 µM (inactive)	4.61 µM (inactive)	17.1 µM (inactive)	2.23 µM (inactive)	2.1 µM (inactive)	3.16 µM (inactive)	14.7 µM (inactive)	19.8 µM (inactive)	–	13.9 µM (inactive)	10.2 µM (inactive)	1.74 µM (inactive)	1.77 µM (inactive)	2.26 µM (inactive)	5.53 µM (inactive)	15.6 µM (inactive)	6.62 µM (inactive)
CCCc1nnc2sc(COc3ccc(OCc4nn5c(CCC)nnc5s4)c(Cl)c3)nn12	42.1 µM (inactive)	14.7 µM (inactive)	19.5 µM (inactive)	31.3 µM (inactive)	19.1 µM (inactive)	14.3 µM (inactive)	32.1 µM (inactive)	24.9 µM (inactive)	26 µM (inactive)	20.3 µM (inactive)	23.3 µM (inactive)	–	24.8 µM (inactive)	13.7 µM (inactive)	27 µM (inactive)	14.8 µM (inactive)	27 µM (inactive)	12.1 µM (inactive)	44.2 µM (inactive)	20.9 µM (inactive)
CCCC(=O)OCC1OC(n2cc(F)c(=O)[nH]c2=O)C(F)C1OC(=O)CCC (stereo unspecified)	> 100 µM (inactive)	5.61 µM (inactive)	9.31 µM (inactive)	49.3 µM (inactive)	23.1 µM (inactive)	50 µM (inactive)	56.1 µM (inactive)	> 100 µM (inactive)	41.5 µM (inactive)	85.7 µM (inactive)	3.78 µM (inactive)	–	15.3 µM (inactive)	25.9 µM (inactive)	21.5 µM (inactive)	> 100 µM (inactive)	54.7 µM (inactive)	1.63 µM (inactive)	> 100 µM (inactive)	0.6 µM (active)
Cc1nn2c(=O)c([N+](=O)[O-])c(/C=C/c3ccc(F)cc3)nc2s1	9.91 µM (inactive)	11 µM (inactive)	3.51 µM (inactive)	14.1 µM (inactive)	8.67 µM (inactive)	5.64 µM (inactive)	5.69 µM (inactive)	10.1 µM (inactive)	4.28 µM (inactive)	10.9 µM (inactive)	8.34 µM (inactive)	–	16.2 µM (inactive)	11.3 µM (inactive)	6.41 µM (inactive)	3.95 µM (inactive)	4.42 µM (inactive)	8.55 µM (inactive)	9.42 µM (inactive)	3.4 µM (inactive)
Cc1ccc(S(=O)(=O)NNC2(NS(=O)(=O)c3ccc(Cl)cc3)C(Cl)=C(Cl)C(=O)c3ccccc32)cc1 (stereo unspecified)	20 µM (inactive)	16.1 µM (inactive)	5.4 µM (inactive)	16.8 µM (inactive)	18.4 µM (inactive)	15.5 µM (inactive)	7.93 µM (inactive)	25.6 µM (inactive)	16.4 µM (inactive)	17.6 µM (inactive)	17.9 µM (inactive)	–	18.5 µM (inactive)	16.6 µM (inactive)	17.9 µM (inactive)	14.4 µM (inactive)	17 µM (inactive)	21.2 µM (inactive)	16.7 µM (inactive)	16.4 µM (inactive)
C#CC1(O)CCC2[C@@H]3CCc4cc(Oc5nc(F)nc(-c6c(C)c(C(=O)OCC)n7ccccc67)n5)ccc4C3CC[C@@]21C (stereo partly specified)	> 100 µM (inactive)	> 100 µM (inactive)	> 100 µM (inactive)	> 100 µM (inactive)	> 100 µM (inactive)	> 100 µM (inactive)	29.6 µM (inactive)	> 100 µM (inactive)	> 100 µM (inactive)	> 100 µM (inactive)	> 100 µM (inactive)	–	> 100 µM (inactive)	> 100 µM (inactive)	> 100 µM (inactive)	> 100 µM (inactive)	> 100 µM (inactive)	> 100 µM (inactive)	> 100 µM (inactive)	> 100 µM (inactive)
NC(=O)CC(Nc1ncc2c(n1)-c1ccccc1OC2)C(=O)O (stereo unspecified)	> 100 µM (inactive)	> 100 µM (inactive)	26 µM (inactive)	> 100 µM (inactive)	43.1 µM (inactive)	59.6 µM (inactive)	> 100 µM (inactive)	> 100 µM (inactive)	> 100 µM (inactive)	61.7 µM (inactive)	> 100 µM (inactive)	–	> 100 µM (inactive)	> 100 µM (inactive)	> 100 µM (inactive)	14.9 µM (inactive)	> 100 µM (inactive)	> 100 µM (inactive)	> 100 µM (inactive)	77.6 µM (inactive)
COc1cc2ccn3c4cc(OC)c(OC)cc4cc3c2cc1OC	> 100 µM (inactive)	> 100 µM (inactive)	5.6 µM (inactive)	> 100 µM (inactive)	29.6 µM (inactive)	98.2 µM (inactive)	> 100 µM (inactive)	> 100 µM (inactive)	58.6 µM (inactive)	> 100 µM (inactive)	> 100 µM (inactive)	> 100 µM (inactive)	–	> 100 µM (inactive)	32.8 µM (inactive)	4.83 µM (inactive)	–	–	–	–
O=[N+]([O-])c1cccc(C2ON2C2CCCCC2)c1 (stereo unspecified)	25.5 µM (inactive)	17.8 µM (inactive)	2.94 µM (inactive)	30.3 µM (inactive)	24.2 µM (inactive)	44 µM (inactive)	14.4 µM (inactive)	18.3 µM (inactive)	18.5 µM (inactive)	21.6 µM (inactive)	17.5 µM (inactive)	12 µM (inactive)	–	20.4 µM (inactive)	13.5 µM (inactive)	17.5 µM (inactive)	–	22.5 µM (inactive)	–	–
COCN1CCN=c2c1c1c3c(c4ccccc4n23)CCC1	> 100 µM (inactive)	> 100 µM (inactive)	> 100 µM (inactive)	> 100 µM (inactive)	> 100 µM (inactive)	> 100 µM (inactive)	> 100 µM (inactive)	> 100 µM (inactive)	> 100 µM (inactive)	> 100 µM (inactive)	> 100 µM (inactive)	–	> 100 µM (inactive)	> 100 µM (inactive)	> 100 µM (inactive)	> 100 µM (inactive)	> 100 µM (inactive)	> 100 µM (inactive)	> 100 µM (inactive)	> 100 µM (inactive)
CCCc1cn2c(/C=N/N=C(N)N)c(-c3c(OC)ccc(OC)c3[N+](=O)[O-])nc2s1	16.7 µM (inactive)	20.2 µM (inactive)	2.54 µM (inactive)	16.8 µM (inactive)	5.57 µM (inactive)	18 µM (inactive)	3.44 µM (inactive)	1.94 µM (inactive)	4.69 µM (inactive)	7.08 µM (inactive)	12.3 µM (inactive)	–	16 µM (inactive)	8.24 µM (inactive)	6.18 µM (inactive)	7.46 µM (inactive)	9.55 µM (inactive)	16.9 µM (inactive)	9.59 µM (inactive)	2.81 µM (inactive)
COC(=O)C(Cc1ccccc1)NC(=O)C(CS)NC(=O)OC(C)(C)C (stereo not drawn) (Boc-Cys-Phe-OMe; configuration not given here)	> 100 µM (inactive)	32.1 µM (inactive)	> 100 µM (inactive)	> 100 µM (inactive)	> 100 µM (inactive)	> 100 µM (inactive)	38.2 µM (inactive)	8.55 µM (inactive)	88.1 µM (inactive)	> 100 µM (inactive)	> 100 µM (inactive)	–	> 100 µM (inactive)	> 100 µM (inactive)	41.9 µM (inactive)	27.7 µM (inactive)	26 µM (inactive)	> 100 µM (inactive)	> 100 µM (inactive)	73.5 µM (inactive)
CC[C@H](C)[C@H]1NC(=O)[C@@H](NC(=O)[C@@H](CC(C)C)N(C)C(=O)[C@@H]2CCCN2C(=O)C(C)=O)[C@@H](C)OC(=O)[C@H](Cc2ccc(OC)cc2)N(C)C(=O)[C@@H]2CCCN2C(=O)[C@H](CC(C)C)NC(=O)[C@H](C(C)C)OC(=O)C[C@@H]1O (Pyruvoyl-P[dNMeL]T[X40][Hiv]LP[NMeY](Me); ester 3-C)	0.0047 µM (active)	0.00562 µM (active)	0.00545 µM (active)	0.00838 µM (active)	0.0581 µM (active)	0.0031 µM (active)	0.00353 µM (active)	0.00423 µM (active)	0.00577 µM (active)	0.00594 µM (active)	0.00429 µM (active)	–	0.00372 µM (active)	0.00374 µM (active)	0.00222 µM (active)	0.05 µM (active)	0.00383 µM (active)	0.00361 µM (active)	0.0046 µM (active)	0.00232 µM (active)
